In patent US20040039041A1, “Prevention of development of dyskinesias” (priority 2003, published 2004):

Tests used:
[1] = test system: C57BL/6J strain male mice; experiment: Locomotor activity after different drug treatments at day 9 in the chronic treatment groups; type: in vivo
Procedure: (§1) Experiments were performed with C57BL/6J strain male mice from Jackson Laboratories. Mice were transferred to laboratory at least 2 weeks prior to use. The mice were from 8 to 20 weeks of age at the beginning of an experiment. Groups of 10 mice were housed in standard polypropylene cages (38×22×15 cm) with free access to standard certified pelleted food (RM1 Maintenance Expanded SQC; Special Diet Services, Essex, UK) and water. Ambient temperature was 22±1 C°, and a 12:12 h light/dark cycle was maintained with lights on at 6 A.M. All experiments were carried out between 7 A.M. and 5 P.M. The animal care was performed in accordance with International Council for Laboratory Animal Science (ICLAS) guidelines.
(§2) D-Amphetamine sulphate (Sigma, St. Louis, Mo., U.S.A.) and atipamezole HCl (Orion Corporation, Orion Pharma, Turku, Finland) were dissolved in saline (0.9% NaCl) and administered subcutaneously (s.c.) in a 5 ml/kg volume.
(§3) The locomotor activity of the mice was measured in transparent standard polypropylene animal cages (38×22×15 cm) with transparent cover and aspen bedding on the floor. Test cages were placed middle of the photobeam frame system (Photobeam Activity System PAS, Cage Rack, San Diego Instruments, San Diego, Calif.). Computer control unit registered the interruptions of photobeams from 16 individual cages. Three different types of movements were monitored: 1) ambulations (large horizontal movements), 2) fine movements (smaller horizontal movements) and 3) rearings (vertical movements). Locomotor activity was measured at 5-min intervals for 2 h immediately after D-amphetamine or saline administrations.
At day nine, the effect of different atipamezole and amphetamine administrations to the locomotor activity on the chronic treatment groups were analysed. Used treatments were saline, 1 mg/kg atipamezole, 2 mg/kg D-amphetamine, 0.3 mg/kg atipamezole-2 mg/kg D-amphetamine and 1 mg/kg atipamezole-2 mg/kg D-amphetamine. Chronic treatment groups were saline-, atipamezole-, amphetamine- and atipamezole-amphetamine groups. Chronic groups were treated following schedule in Table 2.
All data are presented as mean±SEM. Statistical analysis were performed using SPSS 9.0 for Windows (SPSS, Chicago, Ill.). Separate repeated measures analyses of variance (ANOVA) were performed on each variable for each experiment grouped on time and treatment group. Results were analysed separately, because data were collected in separate experiments with different study design. When significance (P<0.05) between treatment groups were found comparisons at each time point (date or min) were analyzed by using LSD post-hoc test.

[2] = test system: C57BL/6J strain male mice; experiment: Locomotor activity during chronic treatment (days 1-8), D-amphetamine sensitization schedule with atipamezole pre-treatment; type: in vivo
Procedure: The effects of atipamezole on the locomotor hyperactivity induced by repeated administration of D-amphetamine were studied in male mice.
as §1, §2, §3
D-amphetamine was administered subcutaneously (s.c.) at the dose of 2 mg/kg. Atipamezole was administered s.c. at the dose of 1 mg/kg 20 min before locomotor activity measurement.
In the chronic-treatment group mice were administrated during eight days to elicit provoked locomotor hyperactivity to D-amphetamine and the effect of the atipamezole to the locomotor activity. Mice groups in the chronic treatment schedule were saline, saline-amphetamine, amphetamine, atipamezole and atipamezole-amphetamine. A day before experiment, mice were habituated to the test environment. […] At days seven and eight, the produced locomotor hyperactivity and effect of a single exposure of D-amphetamine (saline-amphetamine-group) were analysed. […]
All data are presented as mean±SEM. […] Results were analysed separately, because data were collected in separate experiments with different study design. When significance (P<0.05) between treatment groups were found comparisons at each time point (date or min) were analyzed by using LSD post-hoc test.

C[C@H](N)Cc1ccccc1 [D-amphetamine]
ambulatory sensitization during repeated administration ([1]; Day 9, chronic amphetamine group, D-amphetamine 2 mg/kg, P<0.001): developed strong ambulatory sensitization
locomotor activity after D-amphetamine ([1]; Day 9, chronic saline group, D-amphetamine 2 mg/kg s.c., P<0.001 vs saline, not same level as amphetamine group (P<0.001)): significantly enhanced locomotor activity
ambulatory activity compared to saline group ([2]; D-amphetamine 2 mg/kg s.c., six repeated administrations (days 1-4, 7, 8), 2-h counts, group amphetamine vs saline and saline-amphetamine at Day 8 P<0.001): progressive enhance in ambulatory activity

CCC1(c2c[nH]cn2)Cc2ccccc2C1 [Atipamezole, 4-(2-ethyl-2,3-dihydro-1H-inden-2-yl)-1H-imidazole]
D-amphetamine-induced locomotor hyperactivity in sensitized mice ([1]; Day 9, chronic amphetamine group, atipamezole 0.3 mg/kg 20 min before D-amphetamine 2 mg/kg, P=0.005): clearly attenuated the D-amphetamine-induced locomotor hyperactivity
D-amphetamine-induced locomotor hyperactivity in sensitized mice ([1]; Day 9, chronic amphetamine group, atipamezole 1 mg/kg 20 min before D-amphetamine 2 mg/kg, P<0.001): clearly attenuated the D-amphetamine-induced locomotor hyperactivity
locomotor activity before saline and D-amphetamine challenge after chronic atipamezole ([1]; Day 9, chronic atipamezole group (1 mg/kg days 1-8)): elevation was not statistically significant
D-amphetamine induced locomotion, group atipamezole-amphetamine vs amphetamine-amphetamine ([1]; Day 9, chronic atipamezole-amphetamine group given atipamezole 1 mg/kg 20 min before D-amphetamine 2 mg/kg, P<0.001): decreased significantly D-amphetamine induced locomotion
locomotor activity with D-amphetamine only at Day 9 after chronic atipamezole-amphetamine, compared to amphetamine-amphetamine group (development of sensitization) ([1]; Day 9, chronic atipamezole-amphetamine group given only D-amphetamine 2 mg/kg, P-0.026): true reduction in the development of sensitization
locomotor activity, atipamezole pre-treatment before D-amphetamine challenge compared D-amphetamine alone ([1]; Day 9, chronic saline group, atipamezole 0.3 mg/kg 20 min before D-amphetamine 2 mg/kg, P=0.016): amplified locomotor activity
locomotor activity, atipamezole pre-treatment before D-amphetamine challenge compared D-amphetamine alone ([1]; Day 9, chronic saline group, atipamezole 1 mg/kg 20 min before D-amphetamine 2 mg/kg, P=0.364): had no effect
total ambulatory activity counts, atipamezole pre-treatment alone ([1]; Day 9, chronic saline group, atipamezole 1 mg/kg 20 min before saline, P=0.81): did not alter total ambulatory activity counts
D-amphetamine-induced locomotion, atipamezole-amphetamine vs amphetamine group ([2]; atipamezole 1 mg/kg s.c. 20 min before D-amphetamine 2 mg/kg s.c. over the course of exposure, Day 2 P<0.05, Days 3-8 P<0.001): decreased significantly D-amphetamine-induced locomotion
locomotor activity, atipamezole pre-treatment before saline challenge vs saline group ([2]; atipamezole 1 mg/kg s.c. daily for six days, 20 min before saline, Day 8, P=0.43): not statistical significant difference
development and expression of sensitization (motor overactivity) ([2]; given chronically in combination with D-amphetamine, in mice (summary statement)): reduced the development and expression of sensitization
